# Experimental data as given in ChEMBL document CHEMBL1921738, “A small molecule that preferentially binds the closed conformation of Hsp90” (Bioorg Med Chem Lett, 2011).
# Active and inactive are the calls of the source. The rule behind the calls is not given here. Side chains are listed from the residue outwards. Peptide text beside a SMILES is read from it. * marks the point of attachment. Biotin = O=C1N[C@H]2[C@H](CS[C@H]2CCCCC(=O)*)N1; PEG4 = NCCOCCOCCOCCOCCC(=O)O
# Experiments:
# [1] = target: T1, Heat shock protein HSP 90-beta (Homo sapiens, UniProt P08238); assay: Binding affinity to human Hsp90 closed state by fluorescence polarization anisotropy
# T1 sequence (P08238 whole entry): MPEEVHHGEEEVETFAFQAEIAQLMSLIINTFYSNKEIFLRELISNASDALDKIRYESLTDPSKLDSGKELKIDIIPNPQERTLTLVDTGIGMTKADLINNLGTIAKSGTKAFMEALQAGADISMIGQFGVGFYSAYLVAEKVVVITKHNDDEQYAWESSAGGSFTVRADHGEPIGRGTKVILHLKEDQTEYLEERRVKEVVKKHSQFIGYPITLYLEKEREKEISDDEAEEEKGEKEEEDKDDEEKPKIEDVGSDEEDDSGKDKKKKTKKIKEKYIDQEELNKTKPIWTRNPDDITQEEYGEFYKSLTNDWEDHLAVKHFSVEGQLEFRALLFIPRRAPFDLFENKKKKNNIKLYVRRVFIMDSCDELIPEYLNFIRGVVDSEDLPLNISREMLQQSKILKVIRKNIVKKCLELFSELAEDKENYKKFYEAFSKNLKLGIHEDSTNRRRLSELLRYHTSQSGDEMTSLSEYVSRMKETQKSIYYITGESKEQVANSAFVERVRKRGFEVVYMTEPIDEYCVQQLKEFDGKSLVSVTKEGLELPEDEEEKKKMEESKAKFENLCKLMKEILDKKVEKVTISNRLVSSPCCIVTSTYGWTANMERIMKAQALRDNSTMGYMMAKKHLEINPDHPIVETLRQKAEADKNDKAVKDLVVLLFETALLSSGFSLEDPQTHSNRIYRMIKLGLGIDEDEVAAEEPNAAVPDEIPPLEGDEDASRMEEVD
# [2] = Binding affinity to Saccharomyces cerevisiae Hsc82 open apo state by fluorescence polarization anisotropy method
# [3] = Binding affinity to Saccharomyces cerevisiae Hsc82 closed state by fluorescence polarization anisotropy method in presence of non-hydrolyzable ATP analog AMPPNP
# [4] = target: T1, Heat shock protein HSP 90-beta; assay: Binding affinity to human Hsp90 open state by fluorescence polarization anisotropy
# [5] = target: T1, Heat shock protein HSP 90-beta; assay: Binding affinity to Hsp90 after 1 hrs by Western blotting
# Jurkat = assay: Cytotoxicity against human Jurkat T-lymphoblastoid leukemia cells after 24 to 48 hrs by MTS assay; format: cell-based
Kd [2] [µM],Kd [3] [µM],SMILES,also measured
–,–,CC(C)C[C@@H]1NC(=O)[C@H](Cc2ccccc2)NC(=O)[C@H](CC(C)C)NC(=O)[C@H](C(C)C)NC(=O)[C@H](CC(C)C)NC1=O (cyclo(FLLVL)),Kd [1]: 100 µM
103,55,CC(C)[C@@H]1NC(=O)[C@H](CCCCNC(=O)c2ccc(C(=O)O)c(-c3c4ccc(=O)cc-4oc4cc(O)ccc34)c2)NC(=O)[C@H](CCCCNC(=O)OCc2ccccc2)NC(=O)[C@H](Cc2ccccc2)NC(=O)[C@@H](Cc2ccccc2)N(C)C1=O,–
–,–,CC(C)C[C@@H]1NC(=O)[C@H](CCCCNC(=O)OCc2ccccc2)NC(=O)[C@H](Cc2ccccc2)NC(=O)[C@@H](Cc2ccccc2)N(C)C(=O)[C@H](C(C)C)NC1=O,Activity [4]: Active; Activity [1]: Active
–,–,CC(C)C[C@@H]1NC(=O)[C@H](Cc2ccccc2)NC(=O)[C@H](CC(C)C)NC(=O)[C@H](C(C)C)NC(=O)[C@H](CCCCNC(=O)CCOCCOCCOCCOCCNC(=O)CCCC[C@@H]2SC[C@@H]3NC(=O)N[C@@H]32)NC1=O (cyclo(FLK([PEG4-Biotin])VL)),Kd [5]: 20 µM
57,27,CC(C)C[C@@H]1NC(=O)[C@H](CCCCNC(=O)OCc2ccccc2)NC(=O)[C@H](Cc2ccccc2)NC(=O)[C@@H](Cc2ccccc2)N(C)C(=O)[C@H](CCCCNC(=O)c2ccc(C(=O)O)c(-c3c4ccc(=O)cc-4oc4cc(O)ccc34)c2)NC1=O,–
180,120,CC(C)C[C@@H]1NC(=O)[C@H](CCCCNC(=O)OCc2ccccc2)NC(=O)[C@H](CCCCNC(=O)c2ccc(C(=O)O)c(-c3c4ccc(=O)cc-4oc4cc(O)ccc34)c2)NC(=O)[C@@H](Cc2ccccc2)N(C)C(=O)[C@H](C(C)C)NC1=O,–
–,–,CO[C@@H]1[C@@H](OC(N)=O)[C@@H](O)[C@H](Oc2ccc3c(O)c(NC(=O)c4ccc(O)c(CC=C(C)C)c4)c(=O)oc3c2C)OC1(C)C [NOVOBIOCIN],Activity (Jurkat): 700 µM
